Measured values from US8030489B2, “Ornithine derivative” (Astellas Pharma Inc., priority 2007, dated 2011).
Values after ≈ are worked out from the molar mass of the structure shown.

How the values were obtained:
rat EP4 receptor = molecular target: T1, rat EP4 receptor (Rattus norvegicus, UniProt P43114); assay: Evaluation test on rat EP4 receptor affinity ([3H]PGE2 binding assay); conditions: rat EP4 expressed in HEK293 membrane fraction, [3H]PGE2 0.3 nM
T1 construct: expressed in transfected cells; host or cells: HEK293
T1 sequence (P43114 whole entry): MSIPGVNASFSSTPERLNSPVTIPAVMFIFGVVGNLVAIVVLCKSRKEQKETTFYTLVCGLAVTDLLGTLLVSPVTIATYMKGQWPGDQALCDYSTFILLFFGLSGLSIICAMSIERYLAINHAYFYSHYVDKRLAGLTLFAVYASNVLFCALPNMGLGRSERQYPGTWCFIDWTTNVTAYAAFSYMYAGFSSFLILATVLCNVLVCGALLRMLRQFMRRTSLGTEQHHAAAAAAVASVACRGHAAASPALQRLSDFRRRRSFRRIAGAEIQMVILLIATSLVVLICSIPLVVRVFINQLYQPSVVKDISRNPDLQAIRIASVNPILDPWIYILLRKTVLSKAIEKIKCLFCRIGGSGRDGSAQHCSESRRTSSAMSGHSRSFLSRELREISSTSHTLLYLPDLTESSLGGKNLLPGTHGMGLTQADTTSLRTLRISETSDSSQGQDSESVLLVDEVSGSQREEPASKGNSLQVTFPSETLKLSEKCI
Protocol: Test Example 1: Evaluation Test on Rat EP4 Receptor Affinity
Cell Culture and Transfection
Using a 10 cm collagen-coated dish (Asahi Glass), HEK293 cells were cultured in a D-MEM culture medium, washed with a phosphate buffer saline (PBS), the culture medium was removed off at a confluence (90 to 100% density state), and then the cells were detached with N,N,N′,N′-tetrakis(carboxymethyl)ethylenediamine (EDTA). The cells were counted and seeded on a 15 cm collagen-coated dish to a confluence of 70%. The next day, to an Opti-MEM culture medium at 1.2 mL/dish was added Lipofectamine 2000 (Invitrogen) at 60 μL/dish, followed by being left to stand at room temperature for 5 minutes. A plasmid in which a rat EP4 (alignment number 1) had been inserted into a TA cloning site of pcDNA3.1-V5-His-topo was added thereto to 15 μg/dish. After leaving it to stand at room temperature for 30 minutes, the resultant was added to the dish, and cultured for 20 to 24 hours. The cell culture was carried out in a CO2 incubator (37° C., 5% CO2).
Preparation of Membrane Fraction
The culture medium was removed by suction, 10 mL of cooled PBS was added thereto per 15 cm dish, and the cells were scraped using a cell scraper (Sumitomo Bakelite). They were washed with cooled PBS (1,200 rpm, 4° C., 5 min), and then suspended in 6 mL of cooled 20 mM Tris-HCl (pH 7.4; Nakalai Tesque Inc., including 5 mM EDTA (Nakalai Tesque Inc.) per dish. Then, it was homogenized using a Polytron and the homogenate was centrifuged (26,000 rpm, 20 min, 4° C.). The obtained precipitate was resuspended in cooled 20 mM Tris-HCl, and homogenized again using a Polytron, and the homogenate was centrifuged (26,000 rpm, 20 min, 4° C.). The obtained precipitate was resuspended in 50 mM HEPES (pH 7.5; Dojindo Laboratories) to 1 mL per dish, homogenized again using a Polytron, and freeze-stored at −80° C. as a membrane fraction. At this time, a part thereof was used for the measurement of the protein concentration. Measurement of the protein concentration was carried out using a Bio-Rad Protein assay kit (Bio-Rad Laboratories) in accordance with the appended standard Protocol in duplicate.
[^3H] PGE2 50 μL (final concentration 0.3 nM; Perkin Elmer), 100 μL (20 μg/well) of a membrane fraction prepared from the rat EP4 expression cell, and 50 μL of a test compound were mixed in a 96-well microplate (Sumitomo Bakelite), incubated at room temperature for 1 hour, then filtered by suction on a UniFilter-96 GF/B (Perkin Elmer) using a FilterMate Harvester (Perkin Elmer), and washed three times with 300 μL/well of a cooled assay buffer. Dilution of [^3H]PGE2 and the membrane fraction was carried out using an assay buffer (50 mM HEPES, 10 mM MgCl2), and dilution of the test compound and the unlabeled PGE2 was carried out using DMSO and an assay buffer. Further, in the case of the addition of a human serum albumin (HSA), dilution was carried out using an assay buffer containing 4% HSA (final concentration 1%; Sigma). The UniFilter-96 GF/B was treated by preliminarily washing twice with 200 μL/well of a cooled assay buffer. The UniFilter-96 GF/B after filtration was dried in a dryer overnight, 50 μL/well of MicroScint20 (Perkin Elmer) was added thereto, and then the radioactivity was measured using a TopCount (Perkin Elmer). For measurement of the non-specific binding, an unlabeled PGE2 (final concentration 1 μM; Cayman) was added. All of the measurements were carried out in duplicate, and the specific binding amount was determined by subtracting the non-specific binding amount from the total binding amount.
According to Test Example 1 as above, the rat EP4 receptor affinity (Ki) of the compound of the formula (I) was measured.

[1] = tested on: urinary albumin excretion (UAE) in STZ diabetic rats; assay: Effect on urine albumin in streptozotocin-induced (STZ) diabetic rats; assay type: in vivo, rat; conditions: male Wistar rats, STZ 50 mg/kg i.v.; 30 mg/kg oral, fourth week of administration; vehicle group 3.1±0.7 mg/day
Protocol: Test Example 2: Test to Study the Effect on Urine Albumin in Streptozotocin-induced (STZ) Diabetic Rats.
Eight-week old male Wistar (Crj) rats were divided into groups with unbiased urinary albumin excretion (UAE), and STZ (50 mg/kg) was intravenously administered thereto. From the next day of administration of STZ, the drug was continuously orally administered, and urine was periodically collected in a metabolism cage for 24 hours to measure the UAE.

Solubility test = assay type: physicochemical; conditions: pH 1.2, simulated gastric fluid, kinetic from dmso stock; first liquid for disintegration test of Japanese Pharmacopoeia, 25° C., shaking 20 hours
Protocol: Test Example 3: Solubility Test
To 13 μL of a 10 mM DMSO solution of a test material that had been prepared in advance was added exactly 1 mL of a first liquid for a disintegration test of Japanese Pharmacopoeia, followed by shaking at 25° C. for 20 hours, thereby giving a sample stock solution. Next, using a filter impregnated with 200 μL of the sample stock solution, 200 μL of a fresh sample stock solution was added for filtration to obtain a liquid, which was taken as a sample solution. Apart from this, to 10 μL of the 10 mM DMSO solution of the test material was added accurately 1 mL of methanol, followed by stirring, thereby giving a standard solution. 10 μL of the sample solution and the standard solution were tested by liquid chromatography, respectively, and the ratio of the peak area of the sample solution to the peak area of the standard solution was determined, thereby calculating the solubility. For example, the solubilities of the compounds of Examples 23, 25, 31, 32, 50, 55, 57, 60, 93, and 284 were 51 μg/mL, 26 μg/mL, ≧53 μg/mL, 46 μg/mL, 47 μg/mL, ≧52 μg/mL, ≧50 μg/mL, 40 μg/mL, ≧53 μg/mL, and <1 μg/mL, respectively.

Row | Compound | Ki (rat EP4 receptor) [nM] | solubility at 20 h (Solubility test) [mg/mL] | urinary albumin excretion (UAE) [1] [mg/day]
1 | Cn1c(C(=O)N[C@@H](CCCNC(=O)OCc2ccccc2)C(=O)N[C@H]2CCCC[C@H]2C(=O)O)cc2ccccc21 [Example 22] | 0.53 | – | –
2 | O=C(NCCC[C@H](NC(=O)c1ccc2ccccc2n1)C(=O)N[C@H]1CCC[C@H]1C(=O)O)OCc1ccccc1 [Example 23] | 0.43 | 0.051 (≈ 95.8 µM) | 0.9 ± 0.1
3 | CN(C)c1cccc(C(=O)N[C@@H](CCCNC(=O)OCc2ccccc2)C(=O)N[C@H]2CCC[C@H]2C(=O)O)c1 [Example 31] | 1.1 | ≥ 0.053 | –
4 | O=C(NCCC[C@H](NC(=O)c1cccc(Cl)c1)C(=O)N[C@H]1CCC[C@H]1C(=O)O)OCc1ccccc1 [Example 32] | 1.3 | 0.046 (≈ 89.1 µM) | –
5 | Cc1cc(C)n(C)c1C(=O)N[C@@H](CCCNC(=O)OCc1ccccc1)C(=O)N[C@H]1CCC[C@H]1C(=O)O [Example 36] | 9.8 | – | –
6 | O=C(/C=C/c1ccccc1O)N[C@@H](CCCNC(=O)OCc1ccccc1)C(=O)N[C@H]1CCC[C@H]1C(=O)O [Example 55] | 0.92 | ≥ 0.052 | –
7 | Cc1cc(C(=O)N[C@@H](CCCNC(=O)OCc2ccccc2)C(=O)N[C@H]2CCC[C@H]2C(=O)O)n(C)c1 [Example 57] | 0.72 | ≥ 0.05 | –
8 | CC(=O)c1cn(C)c2cc(C(=O)N[C@@H](CCCNC(=O)OCc3ccccc3)C(=O)N[C@H]3CCC[C@H]3C(=O)O)ccc12 [Example 60] | 1.1 | 0.04 (≈ 69.4 µM) | –
9 | Cn1c(C(=O)N[C@@H](CCCNC(=O)OCc2ccccc2)C(=O)N[C@H]2CCC[C@H]2c2nnn[nH]2)cc2ccccc21 [Example 83] | 0.52 | – | –
10 | Cn1c([C@@H]2CCC[C@@H]2NC(=O)[C@H](CCCNC(=O)OCc2ccccc2)NC(=O)c2cc3ccccc3n2C)n[nH]c1=S [Example 120] | 9.8 | – | –
11 | CC(C)COC(=O)NCCC[C@H](NC(=O)c1cc2ccccc2n1C)C(=O)N[C@H]1CCC[C@H]1C(=O)O [Example 159] | 6 | – | –
12 | Cn1c(C(=O)N[C@@H](CCCNC(=O)OCC2CCCCC2)C(=O)N[C@H]2CCC[C@H]2C(=O)O)cc2ccccc21 [Example 160] | 0.43 | – | –
13 | COc1ccc2c(c1)cc(C(=O)N[C@@H](CCCNC(=O)OCc1ccccc1)C(=O)N[C@H]1CCC[C@H]1c1nnn[nH]1)n2C [Example 169] | 0.29 | – | –
14 | Cn1c(C(=O)N[C@@H](CCCNC(=O)OCc2ccccc2)C(=O)N[C@H]2CCC[C@H]2C(=O)NS(=O)(=O)CCCO)cc2ccccc21 [Example 176] | 4 | – | –

More lines, in order of falling Ki (rat EP4 receptor), values ahead:

Row | Ki (rat EP4 receptor) [nM] | solubility at 20 h (Solubility test) [mg/mL] | Compound | urinary albumin excretion (UAE) [1] [mg/day]
15 | 2.1 | – | Cn1c(C(=O)N[C@@H](CCCNC(=O)OCc2ccccc2)C(=O)N[C@H]2CCC[C@H]2c2n[nH]c(=S)o2)cc2ccccc21 [Example 119] | –
16 | 1.8 | – | O=C(NCCC[C@H](NC(=O)c1cccc(Cl)n1)C(=O)N[C@H]1CCC[C@H]1C(=O)O)OCc1ccccc1 [Example 76] | –
17 | 1.6 | – | COc1cccc(C(=O)N[C@@H](CCCNC(=O)OCc2ccccc2)C(=O)N[C@H]2CCC[C@H]2C(=O)O)c1 [Example 26] | –
18 | 0.92 | – | Cn1c(C(=O)N[C@@H](CCCNC(=O)OCc2ccccc2)C(=O)N[C@H]2CCC[C@H]2C(=O)O)cc2ccccc21 [Example 2, (1R,2S)-2-({N^5-[(benzyloxy)carbonyl]-N^2-[(1-methyl-1H-indol-2-yl)carbonyl]-L-ornithyl}amino)cyclopentanecarboxylic acid] | –
19 | 0.79 | ≥ 0.053 | Cn1ccc2cccc(C(=O)N[C@@H](CCCNC(=O)OCc3ccccc3)C(=O)N[C@H]3CCC[C@H]3C(=O)O)c21 [Example 93] | –
20 | 0.78 | 0.047 (≈ 87.9 µM) | Cn1ccc2c(C(=O)N[C@@H](CCCNC(=O)OCc3ccccc3)C(=O)N[C@H]3CCC[C@H]3C(=O)O)cccc21 [Example 50] | –
21 | 0.66 | 0.026 (≈ 48.6 µM) | Cn1ccc2ccc(C(=O)N[C@@H](CCCNC(=O)OCc3ccccc3)C(=O)N[C@H]3CCC[C@H]3C(=O)O)cc21 [Example 25] | –
22 | 0.29 | – | COc1ccc2[nH]c(C(=O)N[C@@H](CCCNC(=O)OCc3ccccc3)C(=O)N[C@H]3CCC[C@H]3c3nnn[nH]3)cc2c1 [Example 164] | –
23 | 0.26 | – | COc1ccc2[nH]c(C(=O)N[C@@H](CCCNC(=O)OCc3ccccc3)C(=O)N[C@H]3CCC[C@H]3C(=O)O)cc2c1 [Example 165] | –
